The record followed here is paper PMC8472562, “Oral Peptide Vaccine against Hookworm Infection: Correlation of Antibody Titers with Protective Efficacy” (Vaccines, 2021).

Entries after “also recorded” stand apart in the source; their conditions may differ. Bridge positions count the residues as written; N and C are the ends. I, II: the chains in the order shown.

The nature of data set [1]: Secondary structure by ATR-FTIR. The data set is classed as physicochemical. Conditions: 2 mg/mL in PBS, 25 °C, triplicate spectra, second derivative. How it is done:
The compounds’ secondary structures were evaluated according to the methodology of Yang et al.. Solutions of each compound in PBS (2 mg/mL) were prepared and placed on the diamond-attenuated total reflectance accessory of the ATR-FTIR, and absorbance spectra were collected from 500 and 4000 cm^−1, in triplicate, at 25 °C and 4 cm^−1 resolution. The first and second derivative of the absorbance spectra were generated and analyzed using Originpro 2020 software. The second derivative secondary structure component-peak assignment was also detected and quantified using Originpro 2020 software.

The test system of data set [2] is Nippostrongylus brasiliensis. It is filed as in vivo, BALB/c mice. The following applies: oral 4 × 100 µg; 750 L3 larvae s.c.; 7 days post-infection; one-way ANOVA and Mann Whitney U-test against negative control.
In data set [3] the test system is T1, bovine trypsin.
T1 construct: purchased Sigma-Aldrich
As to the kind of experiment: In vitro stability against proteolysis by bovine trypsin. The data set is classed as in vitro ADME. The following applies: bovine trypsin 1000 U solution, 1 mM CaCl2 in PBS, 37 °C with shaking, analytical HPLC. How it is done:
(§1) Enzyme 1000 U solution was prepared from bovine trypsin (10,000 U/mg, Sigma-Aldrich, Castle Hill, NSW, Australia) with 1 mM CaCl2 in 1 mL PBS, as reported previously. After preparation, 100 µL of enzyme solution was added to 400 µL of peptide solution (1.25 mg/mL) in PBS and incubated at 37 °C with shaking. To inhibit enzyme activity, 40 µL of TFA and acetonitrile mixture (1:2) was added to 60 µL aliquots of the mixture at each interval. The solution was analyzed by analytical HPLC with a calibration curve employing the compound’s peak at its characteristic retention time to determine intact compound concentration.

The nature of data set [4]: Particle size distribution by dynamic light scattering and TEM. The data set is classed as physicochemical. The following applies: 0.2 mg/mL in PBS, 25 °C, angle 173°. How it is done: Particle size distribution was evaluated by preparing a 0.2 mg/mL solution of each pure compound in PBS and measured using dynamic light scattering (DLS; Zetasizer Nano ZP) at 25 °C and an angle of 173°.
Compounds were evaluated by transmission electron microscopy using a JEM-1010 microscope (JEOL LTD, Tokyo, Japan) at 100 kV. The images were analyzed using AnalySIS® software (Megaview III, Munster, Germany).

Data set [5] has as its system p3 epitope. The data set is classed as in vivo, BALB/c mice. Conditions: oral gavage 4 × 100 µg, two-week intervals, n = 8/group; ELISA; compared to PBS group or between groups. For orientation: In an ELISA, binding on a coated surface is turned into a signal by an enzyme label.
A further data set concerns mutant APR-1M74. The experiment in a line: Serum anti-APR-1 IgG ELISA after oral immunization. The data set is classed as in vivo, BALB/c mice. The following applies: oral gavage 4 × 100 µg, two-week intervals, n = 8/group.
For data set [6], the system named is p3 epitope. It is filed as in vivo, BALB/c mice. The following applies: oral gavage 4 × 100 µg; ELISA.
Data set [7] concerns the target T2, bovine trypsin (Bos taurus, UniProt P00760).
T2 construct: purchased Sigma-Aldrich
T2 sequence (P00760 24-246): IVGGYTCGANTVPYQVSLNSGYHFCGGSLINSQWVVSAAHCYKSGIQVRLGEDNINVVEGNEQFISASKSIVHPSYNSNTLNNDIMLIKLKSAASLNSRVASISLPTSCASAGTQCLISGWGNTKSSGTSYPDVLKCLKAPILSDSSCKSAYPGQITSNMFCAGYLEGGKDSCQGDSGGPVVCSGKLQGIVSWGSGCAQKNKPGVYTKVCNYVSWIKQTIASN
The experiment in a line: In vitro stability against proteolysis by bovine trypsin. The data set is classed as in vitro ADME. The following applies: bovine trypsin in PBS, 37 °C. How it is done:
as §1

Consider “Ac-LLLLLLLLLLTSLIAGPKAQVEAIQKYIGAELKKLIPNASLIENCTKAELSKKKK-NH2 (N-terminus and C-terminus assumed) [LL10]”, for which, in data set [1], the β-sheet contribution stood at 6%. In addition, the “parasite and egg numbers after challenge infection, in words” value in data set [2] is listed as “highest significant reduction in worm burden; also recorded: significantly reduced”. The metabolised at 0.5 h, 1 mg/mL in the data set on bovine trypsin [3] (100 µL enzyme + 400 µL peptide 1.25 mg/mL, 30 min, read-out: degradation after 30 min of incubation with trypsin) turned out to be 25%. In the data set with bovine trypsin [3] (peptide 1.25 mg/mL, 60 min, read-out: conjugate remained intact after 60 min), the remaining at 1 h, 1 mg/mL is 15%. In data set [4] (DLS), the “polydispersity index (PDI)” value is given as 0.36 ± 0.1. The same substance displayed a nanoparticle size in data set [4] (self-assembled, electron microscopy and DLS, LCP, BL10, LL10 also formed aggregates) of 22 nm. In addition, the “serum p3-IgG titers” value in the data set with p3 epitope [5] was “highest; also recorded: significantly higher”. Further, the “serum anti-APR-1 IgG titers” value with mutant APR-1M74 is “highest”. The “mucosal antibody responses (saliva and fecal extracts, IgA and IgG)” value with p3 epitope [6] is on record as “detectable”.
For the substance “Ac-TSLIAGPKAQVEAIQKYIGAELKKLIPNASLIENCTKAELSKKKK-NH2 [p3-P25]”, the “time to almost complete degradation by trypsin” value on bovine trypsin [7] (analytical HPLC) is “less than 30 min”.
Regarding “I: Ac-TSLIAGPKAQVEAIQKYIGAELKKLIPNASLIENCTKAELSKKKK-NH2 / II: Ac-LLLLLLLLLL (amide I:23-II:C) [BL10]”, the “stability against trypsin degradation, comparison in words” value at bovine trypsin [7] (one-way ANOVA with Tukey's test) is given as “significantly slower than p3-P25”.
